Positions of bridges follow the written chain, without caps; N, C: chain ends. Non-standard residues stand in square brackets, D forms with d. Residues, ends and D or L forms follow the SMILES beside them.
Experiments:
[1] = Plasma concentration after a single intraperitoneal dose; assay type: in vivo; settings: ip, 24 hours after a single intraperitoneal dose of 1 mg in 250 μL saline
Description: For example, to prepare a peptide 3 derivative, peptide 3(3-12)[MCP-1] was modified according to Jameson et al. (Nature, 368, 744 (1994)), which yielded CRD-Cys13Leu4Ile11peptide 3(3-12)[MCP-1] (FIG. 3). CRD-Cys13Leu4Ile11peptide 3(3-12)[MCP-1], which had very similar properties to peptide 3(1-12)[MCP-1] […] CRD-Cys13Leu4Ile11peptide 3(3-12)[MCP-1] was also resistant to hydrolysis in vivo and allowed therapeutically useful plasma concentrations to be achieved (>10 μM 24 hours after a single intraperitoneal dose of 1 mg of CRD-Cys13Leu4Ile11peptide 3(3-12)[MCP-1] in 250 μL saline).

[2] = system: chemokine induced calcium flux; assay: Intracellular calcium flux in THP-1 cells (Fura2); assay type: cell-based, human
Description: CRD-Leu4Ile11Cys13 peptide 3(3-12)[MCP-1] at 6.7 μg/ml was incubated with THP-1 cells (2×10^6 cells/ml) for 25 minutes prior to exposure to agonist (10 ng/ml) and measurement of flux. The second exposure to agonist is 2 minutes later. Fluorescence is measured at 510 nm.
Monocytes, eosinophils, neutrophils and lymphocytes loaded with Fura-2 (0.1 nmol/10^5 cells) are stimulated with a chemokine in the presence or absence of the therapeutic agent, and [Ca^2+]i-related fluorescence changes are recorded (Von Tschanner et al., Nature, 324, 369 (1986)). […] The Fura-2 fluorescence of the monocyte suspension is measured at 37° C. in a single excitation, single emission (500 nm) wavelength Perkin-Elmer LS5 fluorometer. [Ca^2+]i is calculated from changes in fluorescence measured at a single excitation wavelength of 340 nm.
After peptide 3 binds to its receptor, it may block proteins required to effect the response (e.g., block specific integrins needed for chemokine-induced migration but not fNLP or TGFb induced migration), down regulate a chemokine receptor, or interfere with signal transduction mechanisms. Interference with signal transduction mechanisms can be detected in either a direct or indirect manner (for example, using assays for measuring intracellular calcium flux, cAMP, pI3, kinase activity, and DAG).

[3] = target: T1, 5-HT1a receptors (Homo sapiens, UniProt P08908); assay: 5HT1a serotonin receptor membrane binding (3H-8-OH-DPAT)
T1 construct: purchased RBI/Sigma S-160
T1 sequence (P08908 whole entry): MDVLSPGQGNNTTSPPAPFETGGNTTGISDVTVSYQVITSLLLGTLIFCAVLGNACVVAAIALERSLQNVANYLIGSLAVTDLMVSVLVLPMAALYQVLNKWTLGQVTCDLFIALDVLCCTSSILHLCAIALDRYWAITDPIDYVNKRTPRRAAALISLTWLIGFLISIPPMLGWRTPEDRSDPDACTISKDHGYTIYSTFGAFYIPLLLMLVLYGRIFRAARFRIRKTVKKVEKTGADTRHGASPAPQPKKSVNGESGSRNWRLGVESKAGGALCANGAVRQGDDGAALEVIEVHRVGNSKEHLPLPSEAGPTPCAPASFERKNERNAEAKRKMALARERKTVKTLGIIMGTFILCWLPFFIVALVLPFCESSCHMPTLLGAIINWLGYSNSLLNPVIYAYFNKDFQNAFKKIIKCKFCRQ
Description: For 5HT1a serotonin receptors, membranes (S-160, RBI/Sigma) are diluted into binding buffer (50 mM Tris pH 7.4 10 mM MgCl2 and 0.5 mM EDTA, with ascorbate at 1 mg/ml added immediately before use), e.g., 10 μl of membranes in 500 μl assay volume (i.e., 1:50 dilution). Cold competitor or test competitor is then added, e.g., 5 μl of 100× stock solution such as 5 μl of 1 mM oxymetazoline. […] The tubes are vortexed then spun briefly. The mixtures are incubated for 1 hour at 4° C. The mixtures are filtered through GF/C filters pre-soaked in polyethyleneimine (0.3% in MilliQ water). The tubes are washed with 2-3 ml of wash buffer and filtered. The filter is washed with 3×5 ml of wash buffer, and air dried. 4.5 ml of scintillant is added to the dried filter in a scintillation vial and the filter counted on a tritium channel.

[4] = target: T2, Recombinant human latent TGF-β1 (Homo sapiens, UniProt P01137); assay: Latent TGF-β1 activation ELISA (R2X capture); assay type: biochemical; parameters: key: −: A minus indicates no detectable activity in the assay; +: The number of pluses is a qualitative indicating of the activity of each peptide in each assay; ++: The number of pluses is a qualitative indicating of the activity of each peptide in each assay; +++: The number of pluses is a qualitative indicating of the activity of each peptide in each assay; ++++: The number of pluses is a qualitative indicating of the activity of each peptide in each assay; +++++: The number of pluses is a qualitative indicating of the activity of each peptide in each assay; settings: test peptide at 100 nM, 37° C., 90 minutes
T2 construct: purchased R&D Systems; host or cells: CHO cells
T2 sequence (P01137 30-278 limits assumed): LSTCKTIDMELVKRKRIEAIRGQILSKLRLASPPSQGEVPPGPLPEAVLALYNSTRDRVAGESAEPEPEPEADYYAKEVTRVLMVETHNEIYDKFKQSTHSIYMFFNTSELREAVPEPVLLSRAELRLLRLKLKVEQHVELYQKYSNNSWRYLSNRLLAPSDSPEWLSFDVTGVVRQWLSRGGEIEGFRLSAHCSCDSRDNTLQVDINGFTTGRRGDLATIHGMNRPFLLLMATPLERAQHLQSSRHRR
Description: To test whether a KXK tripeptide activates TGF-beta, a direct ELISA-type assay can be used. Recombinant human latent TGF-β1 produced in CHO cells (R&D Systems) was incubated with the test activator. For example, 200 ng of latent TGF-β1 (at 20 μg/ml) was incubated with test peptide at 100 nM final concentration at 37° C. for 90 minutes. Following incubation, the TGF-β is incubated with the recombinant extracellular domain of the Type II TGF-β receptor (R2X) which binds only the active and not the latent forms of TGF-β1 (Clin. Chim. Acta, 235, 11 (1995)). For example, 1 μg of purified R2X is coated onto a Maxisorp ELISA plate well in 50 μl of 100 mM sodium carbonate for 2 hours at 4° C., and non-specific protein binding then blocked incubation with 5% sucrose 5% Tween-20 in Tris-buffered saline for 1 hour at room temperature.
The TGF-β sample is then incubated with the coated and blocked wells for 2 hours at room temperature with shaking. Wells are washed 3 times quickly with Tris-buffered saline containing 0.05% Tween-20 between each incubation. If any of the latent TGF-β1 has been activated by the incubation with test peptide, it is captured by the R2X, while remaining latent TGF-β1 is washed away. Captured active TGF-β1 is then detected by incubation with a suitable detection agent, such as a peroxidase conjugated polyclonal anti-TGF-beta antibody. For example, the wells are incubated with 200 μl of BDA19 chicken anti-TGF-β1 antibody coupled to horseradish peroxidase for 90 minutes at room temperature with shaking. Any bound peroxidase is then detected using a suitable chromogenic substrate (e.g., K-BLUE TMB substrate solution). The amount of active TGF-β generated is estimated by interpolation of a standard curve constructed using known amounts of active TGF-β1 (R&D Systems).

For `CC[C@@H](C)[C@H]1NC(=O)[C@@H](CCC(N)=O)NC(=O)[C@H](N)CSSC[C@H](C(N)=O)NC(=O)[C@@H](CC(C)C)NC(=O)[C@@H](CC(=O)O)NC(=O)[C@H]2CCCN2C(=O)[C@@H](CCCCN)NC(=O)[C@@H](CCC(N)=O)NC(=O)[C@@H](CCCCN)NC(=O)[C@@H](Cc2c[nH]c3ccccc23)NC1=O` (H-[dC][dQ][dI][dW][dK][dQ][dK][dP][dD][dL][dC]-NH2; disulfide 1-11; N-terminus assumed), the level at time molar at 24 h [1] was over 10 µM, the “effect on MCP-1 induced calcium flux” value [2] was “did not block” and the “effect on SDF-1 induced calcium flux” value [2] was “did block”.
For `C=CCCCCCCCCC(=O)N[C@H]1CCC(=O)NC1=O` [A-I (NR58.4), [3S]-3-(undec-10-enoylamino)piperidine-2,6-dione], the “selectivity for MCP-1 inhibition over serotonin receptor binding” value [3] was “approximately 40,000 fold” and the EC50 ([3]; 100 μM highest concentration tested) was 80 µM.
For `NCCCC[C@H](NC(=O)[C@H](CCC(N)=O)NC(=O)[C@@H](N)CCCCN)C(=O)O` [KQK], the “TGF-beta Activator” value [4] was “−”.

— patent publication US7989466B2, “Methods to inhibit or augment an inflammatory response” (Cambridge Enterprise Limited, priority 1999, dated 2011)
